“Also recorded” adds a separate entry of the source.
Tested on: T2R complex
Experiment: STD NMR titration, tau peptide binding to T2R
Parameters: species or system porcine (tubulin isolated from porcine brain)
Conditions: T2R 10 μM; for STD signal / binding to T2R: 1H STD NMR, peptide 2.8 mM, 600 MHz, saturation time 2 s, GPEM buffer pH 6.9; for STD signal / binding to T2R / apparent Kd / affinity for T2R (in words): 10 °C; for apparent Kd / affinity for T2R (in words): STD amplification factor fit, large errors, qualitative
Method: Tubulin protein isolated from porcine brain (97 or >99% pure) was purchased from Cytoskeleton, Inc, as a lyophilized powder. Stathmin-like RB3 domain (RB3SLD) binds to heterodimeric tubulin with a 1:2 stoichiometry, forming a longitudinal dimer of tubulin dimers. For ^1H,^15N HSQC NMR experiments, lyophilized tubulin was dissolved into a solution of 48 μM ^15N-labeled K18 (unmodified, modified, or mutant) containing 53 μM RB3 for a final T2R concentration of 50 μM in a buffer containing 25 mM Tris-d11, 25 mM NaCl, 2.5 mM EDTA, 1.5 mM DTT, and 10% heavy water (deuterium oxide [D2O]) at pH 6.7. For ^1H STD NMR experiments, 10 μM T2R was used for samples containing 0.044 to 2.8 mM peptide. Peptide was directly dissolved into buffer or water and added to 10 μM T2R in a buffer containing 25 mM Tris-d11, 25 mM NaCl, 2.5 mM EDTA, 1.5 mM DTT, and 10% D2O at pH 6.7.
STD spectra were recorded at 10 °C on a 600 MHz spectrometer equipped with a cryoprobe by using a series of 40 equally spaced 50 ms Gaussian-shaped pulses, 4096 scans, a saturation time of 2 s, and on/off-resonance frequencies set to −0.5 and 60 ppm, respectively. Samples for ^1H STD NMR were dissolved into GPEM buffer (80 mM PIPES, 2 mM MgCl2, and 0.5 mM EGTA, at pH 6.9). Spectra were processed and analyzed using Topspin 3.1 (Bruker). We quantify the binding of tau peptides to T2R with a series of STD titration experiments ([95]). STD NMR spectra of the ligand with and without T2R were recorded. The concentration of ligand (tau peptide) ranged from 0.04 to 2.8 mM; T2R concentration was maintained at 10 μM. From STD NMR spectra, STD signals were integrated and summed for both STDdiff and STDref over three regions, 8.565 to 7.771, 7.584 to 7.384, and 7.073 to 6.681 ppm. From STDdiff and STDref, STD AFs (STDAF) were calculated according to Equation 1, where [L] is the concentration of peptide (0.04–2.8 mM) and [R] is the concentration of T2R (10 μM). […] STD-AF values (at a fixed saturation time) of a peptide were fitted according to Equation 2, where αSTD represents the maximum STD AF ([72]). For peptide concentration of […] and T2R concentration of 10 μM, we generated STD build-up curves by recording the STD difference signal at increasing saturation times of 0.1 to 4 s. […] (2) STDAF([L])=αSTD∗[L]/Kd+[L] (3) STDAF(t)=STDmax(1−e^(−Ksat∗t)) STD0=STDmax∗Ksat

NIKHVPGGGSVQIVY {succinyl-K} PVDLSKVTSK [Succinyl-K311 296 to 321, K311 succinylated form of the 296 to 321 peptide]
STD signal / binding to T2R (listed as succinylation at residue K311): loss of binding is evident; also recorded: Decreases in binding | apparent Kd / affinity for T2R (in words) (peptide 0.044 to 2.8 mM, listed as Succinylation at K311): trend toward lower apparent affinity | apparent Kd / affinity for T2R (in words) (peptide 0.044 to 2.8 mM, listed as Succinylation of K311): trend toward reduced binding, though to a lesser extent | apparent Kd increase vs 296 to 321 peptide (STD-AF, peptide 0.044 to 2.8 mM, trend): ca. twofold

NLKHQPGGGKVQIIN {acetyl-K} KLDLSNVQSK [Acetyl-K280 265 to 290, K280 acetylated form of the 265 to 290 peptide]
STD signal / binding to T2R (listed as acetylation at K280): further weakened | STD signal / binding to T2R (listed as acetylation at residue K280): Decreases in binding | apparent Kd / affinity for T2R (in words) (peptide 0.044 to 2.8 mM, listed as K280 acetylation): trend toward reduced binding, though to a lesser extent

NIKHVPGGGSVQIV {phospho-Y} KPVDLSKVTSK [Phos-Y310 296 to 321, Y310 phosphorylated form of the 296 to 321 peptide]
STD signal / binding to T2R (listed as phosphorylation at residue Y310): weaker STD signal; also recorded: Decreases in binding | apparent Kd / affinity for T2R (in words) (peptide 0.044 to 2.8 mM, listed as Y310 phosphorylated peptide): severely reduced peptide binding to T2R | apparent Kd / affinity for T2R (in words) (peptide 0.044 to 2.8 mM, listed as Y310 phosphorylated peptides): precluded a reliable fit | apparent Kd / affinity for T2R (in words) (peptide 0.044 to 2.8 mM, listed as phosphorylation at Y310): linear binding curve over the accessible range of peptide concentrations, precluding a robust fit to the data, but indicating a more severe reduction in affinity
